The values that follow come from US10954305B2 (Immunomedics, Inc., priority 2016, dated 2021).

The subject of series [1] is BxPC-3. Description: ADCC of hRS7-ADCs vs hRS7 IgG. The format is cell-based, human. As to conditions: 33.3 nM; effector to target ratio 100:1. The procedure: The ADCC activity of various hRS7-ADC conjugates was determined in comparison to hRS7 IgG (FIG. 3). PBMCs were purified from blood purchased from the Blood Center of New Jersey. A Trop-2-positive human pancreatic adenocarcinoma cell line (BxPC-3) was used as the target cell line with an effector to target ratio of 100:1. […] All were used at 33.3 nM.

Series [2] has as its system triple-negative breast cancer. The conditions noted are these: 58 evaluable mTNBC patients, RECIST1.1 (Bardia et al.); cited from earlier work.
In series [3] the test system is colorectal cancer. Description: Phase I/II clinical trial of IMMU-132, CRC. In kind it is in vivo, human.
The subject of series [4] is p21^WAF1/Cip1 in MDA-MB-468. The series can be described thus: immunoblotting of apoptotic pathway. As to conditions: by 48 h. The format is cell-based, human. As for the experimental part:
Cells (2×10^6) were plated in 6-well plates overnight. […] Parental hRS7 was used as a control for the ADC.

The subject of series [5] is urothelial cancer. The series can be described thus: Phase I/II clinical trial of IMMU-132, urothelial. In kind it is in vivo, human. As to conditions: 11 assessable patients, 8 or 10 mg/kg.
Series [6] relates to esophageal cancer. Description: Phase I/II clinical trial of IMMU-132, esophageal. The format is in vivo, human.
In series [7] the test system is HCC1806 (Trop-2+). Description: dsDNA breaks, rH2AX flow cytometry. In kind it is cell-based, human. As to conditions: untreated baseline 168. For orientation: A flow cytometer gives signals particle by particle.
Protocol: For drug activity testing, HCC1806 and HCC1395 TNBC cell lines cells were seeded in 6-well plates at 5×10^5 cells/well and held at 37° C. overnight. […] The signal intensity of rH2AX was measured by flow cytometry using a BD FACSCalibur (BD Biosciences, San Jose, Calif.).
The cells were then washed to remove unbound conjugate, and then incubated overnight at 37° C.

hRS7 IgG: the “specific lysis (ADCC)” value in series [1] was 8.5%.

In the case of IMMU-132, in series [2], the “interim objective response rate” value was 31%. For the same substance, the PD in series [3] (of 18 assessable patients) came out at 6; in series [6] (of 4 assessable patients), 1. Further, the PR in series [3] (of 18 assessable patients) came to 1; in series [5] it was 6; in series [6] (of 4 assessable patients), 1. Moreover, the “maximum reduction in target lesions” value in series [3] (person, after 10 months) is reported as 65%. The “plasma CEA after treatment” value in series [3] (person, from 781 ng/mL) is given as 26.5 ng/mL. For the same substance, in series [4], the “decrease of p21^WAF1/Cip1” value is recorded as 43%. Moreover, in series [6] (patient 25, 18 then 13.5 mg/kg), the “duration of SD” value was 30 weeks. For the same substance, in series [7], the “Median fluorescence intensity (rH2AX)” value is given as 546.
